Test: Human HepG2 cell viability assay in 384 well format
Type: toxicity, cell-based
Design: dose 125 nL, time 70.5 hour; cytotoxicity at 70.5 h: concentration not given beside the values
Conditions: HepG2 cells, read-out: Inhibition

Row | Structure (SMILES) | cytotoxicity at 70.5 h
1 | Cc1ccc(CN2CC[C@H]3OCC[C@@H](c4nc(C)no4)[C@H]3C2)cc1 | -11.4%
2 | O=C(c1ccnnc1)N1C[C@H]2CCC[C@@]2(COCC2CCOCC2)C1 | -13%
3 | CCOCC1CN(C(=O)C2=CCCC2)Cc2cnn(CC)c21 (stereo not drawn) | -16.7%
4 | Cc1occc1C(=O)N1CCC2(CC1)NC(=O)CC2c1cnn(C)c1 (stereo not drawn) | -10.3%
5 | CC(C)NC(=O)C1CN(C(=O)Nc2ccccc2)CC12CCOCC2 (stereo not drawn) | 22%
6 | CCOCC1CN(Cc2cnn(C)c2)Cc2ncn(CC3CC3)c21 (stereo not drawn) | 23.1%
7 | CCCNC(=O)c1cc2c(c3ccccc3n2C)n1C(=O)N(C)C | -5.66%
8 | CS(=O)(=O)NCc1ncn2c1CN(C(=O)CC1CCCC1)CCC2 | -5.42%
9 | Cc1ncccc1NC(=O)C1=NOC2(CCN(Cc3nccs3)C2)C1 (stereo not drawn) | -11.1%
10 | CC(C)c1nccn1C(C)C(=O)NCc1noc(Cc2cccs2)n1 (stereo not drawn) | 21.9%
11 | Cc1ccc2[nH]c(-c3cn(C4CCNCC4)nn3)nc2c1C | -3.44%
12 | CCN(Cc1cccc(C(=O)Nc2c(C)cnn2C)c1)[C@H]1COC[C@@H]1O | -2.17%
13 | Cc1cccc(CN2CCC(Cc3ccccc3F)CC2)n1 | 0.263%
14 | O=C1CCCCN1CCCC(=O)N1CCC2(CC1)[C@H](O)C[C@@H]2O | -4.17%
15 | COc1ccccc1[C@@H]1CN(C(=O)Cc2csc(C)n2)C[C@H]1C(=O)O | 12.8%
16 | CCO[C@H]1CN(C)C[C@@H]1NC(=O)c1cc(C)nc2c(C)cccc12 | -8.5%
17 | CN1CCN(C[C@H]2CC[C@@H](Cc3ccc4c(c3)OCO4)O2)CC1 | -6.19%
18 | CCSc1ccc(C(=O)N2CC[C@](O)(CC)[C@H](O)C2)s1 | 22.5%
19 | CCCc1nc(NC2(COC)CCCC2)c2cnn(C)c2n1 | -4.69%
20 | COCC1(C(=O)N[C@H]2CN(c3noc(C)n3)C[C@@H]2C2CC2)CCC1 | -1.28%
21 | c1cc(-c2nc3c(c(NCCn4ccnn4)n2)CCNCC3)ccn1 | 0.89%
22 | CCc1ccc2nc(C)cc(C(=O)NC3CCNC3=O)c2c1 (stereo not drawn) | 0.829%

Row | Structure (SMILES) | cytotoxicity at 70.5 h
23 | Cc1cc(=O)c2ccccc2n1CC1CCNC1 (stereo not drawn) | -1.77%
24 | NC(=O)c1cc2c(nc1Oc1ccccc1CN1CCCCC1)CCC2 | -15%
25 | CCN(CCn1cccn1)Cc1nc(-c2cc(F)ccc2F)oc1C | -11.2%
26 | O=C(c1cscn1)N1CCCCC1c1nc2cc(F)ccc2[nH]1 (stereo not drawn) | -1.08%
27 | CC(C)c1ncc(CN2C[C@@H](CN3CCCCC3)[C@@H](CO)C2)cn1 | -2.58%
28 | O=C(C1CCOCC1)N1CCOC(CC2CCCCC2)C1 (stereo not drawn) | -8.55%
29 | O=C(N1CCCC1)N1C[C@H]2CC[C@@H]1CN(Cc1ccncc1)C2 | 17.1%
30 | CCC[C@H]1CN(Cc2ccc(N(C)C)nc2)C[C@@H]1NC(=O)CO | -6.62%
31 | c1ccc(-c2nc3c(c(NCCn4cccc4)n2)CCNCC3)nc1 | -14.1%
32 | CCCc1nc(C)cc(NCc2ccc(S(N)(=O)=O)cc2)n1 | -16.8%
33 | COc1ncccc1CN1CC[C@@]2(O)CCN(C(=O)C3CCC3)C[C@H]2C1 | -5.11%
34 | COc1ccccc1OCCCN1CCNC1=O | -8.47%
35 | CS(=O)(=O)N[C@@H]1CN(C(=O)c2ccccn2)[C@@H]2CCCO[C@@H]21 | -5.15%
36 | COC[C@]12COC[C@H]1CN(Cc1cc(OC)cc(OC)c1)C2 | -10.3%
37 | CCc1cnc(N2CC3(CCN(Cc4ccsc4)C3)C2)nc1 | 18.4%
38 | CCOCC1CN(Cc2cnn(C)c2)Cc2nn(C)cc21 (stereo not drawn) | 2.42%
39 | CC(C)N1CCO[C@H]2CN(C(=O)c3ccoc3)C[C@H]21 | -4.51%
40 | COc1cc(N2C[C@@H]3COC[C@]3(COc3cccnc3)C2)ncn1 | -5%
41 | Fc1cnc(N2CCOC3(CCN(Cc4ccsc4)CC3)C2)nc1 | 8.85%
42 | CCN1CCO[C@]2(CCC[C@H]2COCc2csc(C)n2)C1 | -7.19%
43 | Cc1nc(CN2CCN(Cc3ccoc3)Cc3cccnc32)cs1 | 32.4%
